Experimental findings from patent US9340539B2, “Hepatitis C inhibitor compounds” (priority 2011, dated 2016) are described below.

The assay relates to HCVpp (HCV E1/E2, isolate Con1) entry into Hep3B2.1-7 cells. Briefly: microbe, parasite or virus in culture. It is filed as cell-based. Conditions: Hepatitis C virus, 72 h, read-out: EC50 (nM) (Ex. 58).
As a reminder, the EC50 is the concentration that produces a half-maximal response. As to `COCC1(C)CC(C)(C)c2c([nH]c3ccc(C(=O)NC4CCN(C(=O)c5n[nH]c(N)n5)C4)cc23)C1=O` (stereo not drawn) [Compound 5017], the EC50 worked out at 9.3 nM.
In the case of `CC1(C)CC2(CCC2)c2c([nH]c3ccc(C(=O)NC4CCN(C(=O)c5nc[nH]n5)C4)cc23)C1=O` (stereo not drawn) [Compound 6016] it was 3.4 nM.
In the case of `COC(=O)c1ccc2[nH]c3c(c2c1)C(C)(C)CC(C)(C)C3=O` [Compound 1107] it was 195 nM; in that of `CC1CC(C)(C)c2c([nH]c3ccc(C(=O)NC4CCS(=O)(=O)C4)cc23)C1=O` (stereo not drawn) [Compound 5014], 187 nM; in that of `CC1(C)CC(C)(C)c2c([nH]c3ccc(C(=O)NC4CCS(=O)(=O)CC4)cc23)C1=O` [Compound 7008], 201 nM.
In the case of `CC1(C)CC(C)(C)c2c([nH]c3ccc(C(=O)NC4CCN(C(=O)c5ccccn5)C4)cc23)C1=O` (stereo not drawn) [Compound 2026] it was 36 nM; in that of `CC1(C)CC2(CC2)C(=O)c2[nH]c3ccc(C(=O)NC4CCN(C(=O)c5nc[nH]n5)C4)cc3c21` (stereo not drawn) [Compound 5008], 22 nM; in that of `CC1(C)CC2(CC2)c2c([nH]c3ccc(C(=O)NCCCn4cncn4)cc23)C1=O` [Compound 6001], 66 nM.
Take `CN1CCC[C@H](NC(=O)c2ccc3[nH]c4c(c3c2)C(C)(C)CC(C)(C)C4=O)C1` [Compound 3006]: the EC50 stood at 102 nM.
`CC1(C)CC2(CCOCC2)C(=O)c2[nH]c3ccc(C(=O)NC4CCS(=O)(=O)C4)cc3c21` (stereo not drawn) [Compound 5003]: the concentration giving a half-maximal response (EC50) came out at 385 nM.
Take `CC1(C)CC(C)(C)c2c([nH]c3ccc(-c4nnc(NC5CCS(=O)(=O)C5)o4)cc23)C1=O` (stereo not drawn) [Compound 1103]: the concentration giving a half-maximal response (EC50) came to 34 nM.
Under `CC1(C)CC(C)(C)c2c([nH]c3cnc(C(=O)NCc4ccccn4)cc23)C1=O` [Compound 9004] stands 85 nM; under `O=C(NC1CCS(=O)(=O)C1)c1ccc2[nH]c3c(c2c1)C1(CCCC3=O)CC1` (stereo not drawn) [Compound 1104], 122 nM; under `CC1(C)CC(C)(C)c2c([nH]c3ccc(C(=O)NC4CCN(S(C)(=O)=O)C4)cc23)C1=O` (stereo not drawn) [Compound 2058], 39 nM.
Consider `Cn1cncc1CNC(=O)CNC(=O)c1ccc2[nH]c3c(c2c1)C(C)(C)CC(C)(C)C3=O` [Compound 7010], for which the EC50 was determined as 126 nM.
In the case of `CC1(C)CC(C)(C)c2c([nH]c3ccc(C(=O)NC4CCN(CCF)C4)cc23)C1=O` (stereo not drawn) [Compound 2003] it was 117 nM.
Under `CC1(C)CC(C)(C)c2c([nH]c3ccc(C(=O)N[C@H]4CC[C@H](NCC5CC5)CC4)cc23)C1=O` [Compound 7019] stands 82 nM.
Consider `CC1(C)CC(C)(C)c2c([nH]c3ccc(C(=O)Nc4cnccn4)cc23)C1=O` [Compound 7050], for which the EC50 came to 88 nM.
